Data taken from patent publication US12472177B2, “Bicyclic compounds and methods for their use in treating Pitt Hopkins syndrome” (NEUREN PHARMACEUTICALS LIMITED, priority 2019, dated 2025).

Experiments:
[1] = Delivery of cG-2-AllylP into the brain after oral administration (CSF, blood, brain exposure); format: in vivo, Sprague Dawley rats; conditions: rat
Method: In an in vivo study, male Sprague Dawley rats (aged 14 weeks) received a single dose of cG-2-AllylP, either 100 mg/kg or 200 mg/kg by oral gavage. Cerebrospinal fluid (CSF) and whole blood were collected at 1.5 and 4 hours postdose, and brain tissue was collected at 4 hours postdose to evaluate cG-2-AllylP exposure.

Tcf4^+/− mice [2] = assay: Fear conditioning (time freezing); format: in vivo, mouse; design: key to Fear Conditioning: Tukey’s Multiple Comparisons Test Summary: **** = p < 0.00001; ns = not significant
Method: (§1) In vivo behavioral studies were conducted in Tcf4^+/− mutant and wildtype littermate control (WT) mice by Gen.DDI (Santiago, Chile). Littermate controls consist of the genotypes Tcf4^+/+. All Tcf4 mutant mice used were heterozygous for the Tcf4 mutation because homozygous mutations of Tcf4 result in embryonic to postnatal day 1 lethality. Ten mice per treatment group, 14 weeks of age, were used for behavioral experiments. Experiments were conducted in line with the requirements of the UK Animals (Scientific Procedures) Act, 1986. The mice were housed in plastic cages (35×30×12 cm), 5 in each and habituated to the animal facilities for at least a week before commencing the test. The room temperature (21° C.±2° C.), relative humidity (55%±5%), a 12-hour light-dark cycle (lights on 7 AM to 7 PM), and air exchange were automatically controlled. The animals had free access to commercial food pellets and water. Testing was performed during the light phase of the circadian cycle, with the order of testing being determined by the principle of conducting the most stressful tests last. Assays were designed to reproduce and expand on the original behavioral characterization of Tcf4^+/− mice. Tcf4^+/− and WT control mice were treated for 6 weeks prior to testing and tested 30 minutes following a dose of cG-2-AllylP, as described in Table 2 below.
Fear conditioning to either an event or a context represents a form of associative learning that has been well studied in many species. In mice, fear is often shown as stopping movement, also known as freezing behavior. Freezing is adaptive for prey species because predators often locate moving prey. The dependent measure used in contextual (delay) fear conditioning is a freezing response that takes place following pairing of an unconditioned stimulus (foot shock), with a conditioned stimulus (CS; e.g., an audible tone), a particular context and/or such a cue. If in a conditioning context one administers a foot shock that is paired with a tone, there will be learning not only to the tone, but also to the context.
Contextual fear conditioning is a basic conditioning procedure. It involves taking an animal and placing it in a novel environment, providing an aversive stimulus, and then removing it. […] Freezing is a response to fear, which has been defined as “absence of movement except for respiration.” This freezing behavior may last from seconds to minutes depending on the strength of the aversive stimulus, the number of presentations, and the degree of learning achieved by the subject.
Animals with the Tcf4^+/− mutation show less freezing behavior than wild type mice. This maladaptive behavior can have serious consequences. Therefore, to determine if NNZ-2591 (cG-2-AllylP) can restore normal fear conditioning in Tcf4^+/− mice, we carried out a series of studies.
The percent of time spent in freezing over a 5-minute test period is shown on the vertical axis of FIG. 4. Animals and their treatments are shown on the horizontal axis.

Tcf4^+/− mice [3] = assay: Nest building (test of daily living); format: in vivo, mouse
Method: as §1
Nest building is an activity needed for mice to raise their offspring and is an indicator of social adaptation and activities of daily living. Tcf4^+/− mice build nests of substantially lower quality than wild type mice. Therefore, to determine if NNZ-2591 (cG-2-AllylP) might restore the quality of nest building, we carried out a series of studies.

[4] = single oral dose 100 mg/kg, 1.5 h postdose
[5] = single oral dose 100 mg/kg, 4 h postdose
[6] = single oral dose 200 mg/kg, 1.5 h postdose
[7] = single oral dose 200 mg/kg, 4 h postdose
[8] = Tcf4^+/− + cG-2-AllylP (100 mg/kg) vs Tcf4^+/− + cG-2-AllylP (200 mg/kg)
[9] = Tcf4^+/− + cG-2-AllylP (100 mg/kg) vs WT + cG-2-AllylP (200 mg/kg)
[10] = Tcf4^+/− + vehicle vs Tcf4^+/− + cG-2-AllylP (100 mg/kg)
[11] = Tcf4^+/− + vehicle vs Tcf4^+/− + cG-2-AllylP (200 mg/kg)
[12] = Tcf4^+/− + vehicle vs WT + cG-2-AllylP (100 mg/kg)
[13] = Tcf4^+/− + vehicle vs WT + cG-2-AllylP (200 mg/kg)
[14] = WT + cG-2-AllylP (100 mg/kg) vs Tcf4^+/− + cG-2-AllylP (100 mg/kg)
[15] = WT + cG-2-AllylP (100 mg/kg) vs Tcf4^+/− + cG-2-AllylP (200 mg/kg)
[16] = WT + cG-2-AllylP (100 mg/kg) vs WT + cG-2-AllylP (200 mg/kg)
[17] = WT + cG-2-AllylP (200 mg/kg) vs Tcf4^+/− + cG-2-AllylP (200 mg/kg)
[18] = WT + vehicle vs Tcf4^+/− + cG-2-AllylP (100 mg/kg)
[19] = WT + vehicle vs Tcf4^+/− + cG-2-AllylP (200 mg/kg)
[20] = WT + vehicle vs WT + cG-2-AllylP (100 mg/kg)
[21] = WT + vehicle vs WT + cG-2-AllylP (200 mg/kg)
[22] = WT mice, 100 mg/kg oral BID 6 weeks
[23] = WT mice, 200 mg/kg oral BID 6 weeks

## C=CC[C@]12CCCN1C(=O)CNC2=O [cG-2-AllylP, (8aS)-Allyl-hexahydropyrrolo[1,2-a]pyrazine-1,4-dione]
[1]; 100 vs 200 mg/kg single oral dose, blood and CSF at 1.5 h, blood, CSF and brain at 4 h
  Dose dependence of concentration in blood, CSF and brain: approximately proportional increase
[1]; 4 hours post dose
  Concentration in blood compared with brain tissue: approximately equivalent
[1]; [4]
  Concentration of cG-2-AllylP in Blood: 58500 ng/mL
  Concentration of cG-2-AllylP in CSF: 40400 ng/mL
[1]; [5]
  Concentration of cG-2-AllylP in Blood: 15600 ng/mL
  Concentration of cG-2-AllylP in Brain: 22600 ng/mL
  Concentration of cG-2-AllylP in CSF: 11000 ng/mL
[1]; [6]
  Concentration of cG-2-AllylP in Blood: 116000 ng/mL
  Concentration of cG-2-AllylP in CSF: 82200 ng/mL
[1]; [7]
  Concentration of cG-2-AllylP in Blood: 34200 ng/mL
  Concentration of cG-2-AllylP in Brain: 37000 ng/mL
  Concentration of cG-2-AllylP in CSF: 24700 ng/mL
Tcf4^+/− mice [2]; [8]
  Fear Conditioning: Tukey’s Multiple Comparisons Test Summary: *** (*** = p < 0.001)
Tcf4^+/− mice [2]; [9]
  Fear Conditioning: Tukey’s Multiple Comparisons Test Summary: **** (**** = p < 0.0001)
Tcf4^+/− mice [2]; [10]
  Fear Conditioning: Tukey’s Multiple Comparisons Test Summary: **** (**** = p < 0.0001)
Tcf4^+/− mice [2]; [11]
  Fear Conditioning: Tukey’s Multiple Comparisons Test Summary: **** (**** = p < 0.0001)
Tcf4^+/− mice [2]; [12]
  Fear Conditioning: Tukey’s Multiple Comparisons Test Summary: **** (**** = p < 0.0001)
Tcf4^+/− mice [2]; [13]
  Fear Conditioning: Tukey’s Multiple Comparisons Test Summary: **** (**** = p < 0.0001)
Tcf4^+/− mice [2]; Tcf4^+/− mice, 100 mg/kg oral BID 6 weeks, 100 mg/kg
  Time spent in freezing behavior over a 5-minute test period: improved but remained significantly different to Wild Type
Tcf4^+/− mice [2]; Tcf4^+/− mice, 200 mg/kg
  Behavior Normalized to WildType Levels: Fear Con: ✓
Tcf4^+/− mice [2]; [14]
  Fear Conditioning: Tukey’s Multiple Comparisons Test Summary: ns
Tcf4^+/− mice [2]; [15]
  Fear Conditioning: Tukey’s Multiple Comparisons Test Summary: nx
Tcf4^+/− mice [2]; [16]
  Fear Conditioning: Tukey’s Multiple Comparisons Test Summary: ns
Tcf4^+/− mice [2]; [17]
  Fear Conditioning: Tukey’s Multiple Comparisons Test Summary: ns
Tcf4^+/− mice [2]; [18]
  Fear Conditioning: Tukey’s Multiple Comparisons Test Summary: * (* = p < 0.05)
Tcf4^+/− mice [2]; [19]
  Fear Conditioning: Tukey’s Multiple Comparisons Test Summary: ns
Tcf4^+/− mice [2]; [20]
  Fear Conditioning: Tukey’s Multiple Comparisons Test Summary: ns
Tcf4^+/− mice [2]; [21]
  Fear Conditioning: Tukey’s Multiple Comparisons Test Summary: ns
Tcf4^+/− mice [2]; [22]
  Time spent in freezing behavior over a 5-minute test period: about the same amount of time in freezing behavior as did vehicle-treated WT mice
Tcf4^+/− mice [2]; [23]
  Time spent in freezing behavior over a 5-minute test period: about the same amount of time in freezing behavior as did vehicle-treated WT mice
Tcf4^+/− mice [3]; [8]
  Test of Daily Living: Tukey’s Multiple Comparison Test Summary: ns
Tcf4^+/− mice [3]; [9]
  Test of Daily Living: Tukey’s Multiple Comparison Test Summary: ns
Tcf4^+/− mice [3]; [10]
  Test of Daily Living: Tukey’s Multiple Comparison Test Summary: **** (**** = p < 0.0001)
Tcf4^+/− mice [3]; [11]
  Test of Daily Living: Tukey’s Multiple Comparison Test Summary: **** (**** = p < 0.0001)
Tcf4^+/− mice [3]; [12]
  Test of Daily Living: Tukey’s Multiple Comparison Test Summary: **** (**** = p < 0.0001)
Tcf4^+/− mice [3]; [13]
  Test of Daily Living: Tukey’s Multiple Comparison Test Summary: **** (**** = p < 0.0001)
Tcf4^+/− mice [3]; Tcf4^+/− mice, 100 mg/kg
  Behavior Normalized to WildType Levels: Nesting: ✓
Tcf4^+/− mice [3]; Tcf4^+/− mice, 100 mg/kg oral BID 6 weeks
  Nest building quality (grade of 1-5): normalized the quality of nests to levels nearly identical to WT mice
Tcf4^+/− mice [3]; Tcf4^+/− mice, 200 mg/kg
  Behavior Normalized to WildType Levels: Nesting: ✓
Tcf4^+/− mice [3]; Tcf4^+/− mice, 200 mg/kg oral BID 6 weeks
  Nest building quality (grade of 1-5): normalized the quality of nests to levels nearly identical to WT mice
Tcf4^+/− mice [3]; [14]
  Test of Daily Living: Tukey’s Multiple Comparison Test Summary: ns
Tcf4^+/− mice [3]; [15]
  Test of Daily Living: Tukey’s Multiple Comparison Test Summary: ns
Tcf4^+/− mice [3]; [16]
  Test of Daily Living: Tukey’s Multiple Comparison Test Summary: ns
Tcf4^+/− mice [3]; [17]
  Test of Daily Living: Tukey’s Multiple Comparison Test Summary: ns
Tcf4^+/− mice [3]; [18]
  Test of Daily Living: Tukey’s Multiple Comparison Test Summary: ns
Tcf4^+/− mice [3]; [19]
  Test of Daily Living: Tukey’s Multiple Comparison Test Summary: ns
Tcf4^+/− mice [3]; [20]
  Test of Daily Living: Tukey’s Multiple Comparison Test Summary: ns
Tcf4^+/− mice [3]; [21]
  Test of Daily Living: Tukey’s Multiple Comparison Test Summary: ns
Tcf4^+/− mice [3]; [22]
  Nest building quality (grade of 1-5): nearly identical to those of vehicle-treated WT mice
Tcf4^+/− mice [3]; [23]
  Nest building quality (grade of 1-5): nearly identical to those of vehicle-treated WT mice
